PubChem BioAssay (NCI)
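All cell lines were grown in 96-well plates and treated with compound for 48 hours. The concentration for 50% growth inhibition is given as GI50. TGI marks complete inhibition of growth.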 Where a SMILES comes first, the peptide text is derived from it. The star is where a group is joined. Trt = c1ccc(C(c2ccccc2)(c2ccccc2)*)cc1; Cbz = O=C(OCc1ccccc1)*

Assays:
Experiment in all cases: inhibition of tumour cell growth, NCI panel, 48 h
ACHN renal = tested on: ACHN renal
COLO 205 colon = tested on: COLO 205 colon
HCC-2998 colon = tested on: HCC-2998 colon
HL-60(TB) leukemia = tested on: HL-60(TB) leukemia
HOP-62 NSCLC = tested on: HOP-62 NSCLC
HOP-92 NSCLC = tested on: HOP-92 NSCLC
HS 578T breast = tested on: HS 578T breast
KM12 colon = tested on: KM12 colon
RPMI-8226 leukemia = tested on: RPMI-8226 leukemia
SK-OV-3 ovarian = tested on: SK-OV-3 ovarian

Compound | GI50 (ACHN renal) | TGI (ACHN renal) | GI50 (COLO 205 colon) | TGI (COLO 205 colon) | GI50 (HCC-2998 colon) | TGI (HCC-2998 colon) | GI50 (HL-60(TB) leukemia) | TGI (HL-60(TB) leukemia) | GI50 (HOP-62 NSCLC) | TGI (HOP-62 NSCLC) | GI50 (HOP-92 NSCLC) | TGI (HOP-92 NSCLC) | GI50 (HS 578T breast) | TGI (HS 578T breast) | GI50 (KM12 colon) | TGI (KM12 colon) | GI50 (RPMI-8226 leukemia) | TGI (RPMI-8226 leukemia) | GI50 (SK-OV-3 ovarian) | TGI (SK-OV-3 ovarian)
O=C1/C(=C/c2ccc(Cl)c(Cl)c2)CN(C(=O)C(Cl)Cl)C/C1=C\c1ccc(Cl)c(Cl)c1 | 0.179 µM | 0.474 µM | 0.178 µM | 0.638 µM | 0.181 µM | 0.355 µM | 0.198 µM | 1.05 µM | 0.271 µM | 0.972 µM | 0.19 µM | 0.541 µM | 0.355 µM | 3.79 µM | 0.16 µM | 0.587 µM | 0.0285 µM | 0.485 µM | 0.558 µM | 1.82 µM
COc1cc(CNCCCCCCN2C(=O)c3cccc4cccc(c34)C2=O)ccc1O | 5.38 µM | 18.4 µM | 2.54 µM | 6.62 µM | 11.2 µM | 24.6 µM | 3.33 µM | 24.3 µM | 5.78 µM | 19.1 µM | 2.46 µM | 17.5 µM | 10 µM | 37.4 µM | 5.57 µM | 18.9 µM | 2.63 µM | 7.19 µM | 12.3 µM | 24.8 µM
CCCCN(CCCC)C(=O)[C@H](CC)[C@@H]1CC[C@@H](C)[C@@H]([C@H](C)[C@@H](O)[C@@H](C)C(=O)[C@H](CC)C2O[C@]3(C=C[C@@H](O)[C@]4(CC[C@@](C)([C@H]5CC[C@](O)(CC)[C@H](C)O5)O4)O3)[C@H](C)C[C@@H]2C)O1 (some centres undefined) | 3.04 µM | 10.5 µM | 2.45 µM | 5.99 µM | 2.01 µM | 5.04 µM | 2.35 µM | 5.7 µM | 3.79 µM | 27.4 µM | 1.2 µM | 4.05 µM | 2.32 µM | 7.83 µM | 1.83 µM | 3.91 µM | 1.79 µM | 5.85 µM | 3.38 µM | > 100 µM
O=C1Nc2ccc(Cl)cc2/C1=C\c1c(-c2ccc(Cl)cc2)nc2sc(C3CC3)nn12 | 2.77 µM | 12.3 µM | 5.77 µM | 23.9 µM | 6.94 µM | 22.3 µM | 40.8 µM | > 100 µM | 1.75 µM | 4.21 µM | 2.01 µM | 5.89 µM | 2.31 µM | 6.85 µM | 15.8 µM | > 100 µM | 18.1 µM | > 100 µM | 2.51 µM | 6.64 µM
C=C1C(=O)O[C@H]2[C@H]1CC/C(COC(=O)c1cc(OC)c(OC)c(OC)c1)=C\CC[C@@]1(C)O[C@@H]21 | 0.743 µM | 2.02 µM | 1.18 µM | 3.09 µM | 1.92 µM | 3.88 µM | 0.711 µM | 2.95 µM | 2.4 µM | 11.5 µM | 0.523 µM | 2.1 µM | 3.68 µM | 32.7 µM | 2.26 µM | 5.82 µM | 0.422 µM | 2.34 µM | 5.22 µM | 16.8 µM
COC(=O)C(CO)NC(=O)C(CSC(c1ccccc1)(c1ccccc1)c1ccccc1)NC(=O)OCc1ccccc1 (centres undefined) (Cbz-Cys(Trt)-Ser-OMe; configuration not given here) |  | > 53.3 µM |  | 32.4 µM |  | 29 µM |  | > 43.6 µM |  | 46.5 µM |  | 29.8 µM |  | 47.9 µM |  | 31.3 µM |  | 5.55 µM |  | > 90.1 µM
CC1CC2C3CCC4=CC(=O)C=CC4(C)C3(F)C(O)CC2(C)C1(O)C(=O)COP(=O)(O)O (centres undefined) | > 500 µM | > 500 µM | > 500 µM | > 500 µM | > 500 µM | > 500 µM | > 500 µM | > 500 µM | > 500 µM | > 500 µM | > 500 µM | > 500 µM | > 500 µM | > 500 µM | > 500 µM | > 500 µM | 16.6 µM | > 500 µM | > 500 µM | > 500 µM
COc1cnc2c(c1)C(=O)c1c-2n(CCCNC2=NCCS2)c(=O)c2cc(F)ccc12 | 0.0496 µM | 1.91 µM | 0.201 µM | 1.91 µM | 12.8 µM | 28.6 µM | 0.381 µM | 1.56 µM | 0.0595 µM | 2.6 µM | 0.563 µM | 19.7 µM | 12 µM | 32.4 µM | 0.577 µM | 3.68 µM | 0.0702 µM | 1.21 µM | 0.182 µM | 0.914 µM
NS(=O)(=O)c1ccc(Nc2cc(-c3ccc(O)c(F)c3)[nH]n2)cc1 | > 25 µM | > 25 µM | > 25 µM | > 25 µM | > 25 µM | > 25 µM | > 25 µM | > 25 µM | > 25 µM | > 25 µM | > 18.3 µM | > 25 µM | 7.28 µM | > 25 µM | 10.3 µM | > 25 µM | > 25 µM | > 25 µM | > 25 µM | > 25 µM
CO[C@H]1C[C@@H]2CC[C@@H](C)[C@@](O)(O2)C(=O)C(=O)N2CCCC[C@H]2C(=O)O[C@H]([C@H](C)C[C@@H]2CC[C@@H](OC(=O)C(C)(CO)CO)[C@H](OC)C2)CC(=O)[C@H](C)/C=C(\C)[C@@H](O)[C@@H](OC)C(=O)[C@H](C)C[C@H](C)\C=C/C=C/C=C/1C | > 9.24 µM | > 10 µM | > 5.94 µM | > 10 µM |  | > 10 µM | > 10 µM | > 10 µM | 0.0147 µM | > 10 µM | 0.00141 µM | > 8.98 µM | 0.00133 µM | > 10 µM | > 10 µM | > 10 µM | 0.00102 µM | > 10 µM | 0.00139 µM | > 10 µM
CCOC(=O)[C@@H](C)C[C@H](Cc1ccccc1)NC(=O)c1csc([C@@H](C[C@H](C(C)C)N(C)C(=O)[C@@H](NC(=O)[C@H]2CCCCN2C)C(C)(C)CC)OC(C)=O)n1 | 0.00225 µM | > 14.1 µM | < 0.00167 µM | 0.003 µM | < 0.00167 µM | 2.77 µM | < 0.00167 µM | 0.0034 µM | 0.00178 µM | > 16.7 µM | 0.0019 µM | 5.69 µM | < 0.00167 µM | 2.17 µM | < 0.00167 µM | > 16.7 µM | < 0.00167 µM | 4.18 µM | < 0.00167 µM | > 16.7 µM
